Laboratory results reported in paper PMC12486805, “Preclinical evaluation of tridecaptin M: in vitro and in vivo efficacy against colistin-resistant Gram-negative bacterial pathogens and pharmacokinetics” (Antimicrobial Agents and Chemotherapy, 2025).
Marks after values point to notes of the source that are not given here. Where a SMILES comes first, the peptide text is derived from it. [ ]: non-standard residue; d: D form. The star is where a group is joined. d(aIle) = CC[C@H](C)[C@@H](N)C(=O)O; X1 = CC[C@H](C)CCCCC(=O)*; dDab = NCC[C@@H](N)C(=O)O; Dab = NCC[C@H](N)C(=O)O

Legend:
hERG channel = molecular target: T1, hERG channel (Homo sapiens, UniProt Q12809); assay: hERG channel inhibition, patch clamp on HEK293 cells expressing hERG; assay type: cell-based
T1 construct: expressed in transfected cells; host or cells: HEK293
T1 sequence (Q12809 whole entry): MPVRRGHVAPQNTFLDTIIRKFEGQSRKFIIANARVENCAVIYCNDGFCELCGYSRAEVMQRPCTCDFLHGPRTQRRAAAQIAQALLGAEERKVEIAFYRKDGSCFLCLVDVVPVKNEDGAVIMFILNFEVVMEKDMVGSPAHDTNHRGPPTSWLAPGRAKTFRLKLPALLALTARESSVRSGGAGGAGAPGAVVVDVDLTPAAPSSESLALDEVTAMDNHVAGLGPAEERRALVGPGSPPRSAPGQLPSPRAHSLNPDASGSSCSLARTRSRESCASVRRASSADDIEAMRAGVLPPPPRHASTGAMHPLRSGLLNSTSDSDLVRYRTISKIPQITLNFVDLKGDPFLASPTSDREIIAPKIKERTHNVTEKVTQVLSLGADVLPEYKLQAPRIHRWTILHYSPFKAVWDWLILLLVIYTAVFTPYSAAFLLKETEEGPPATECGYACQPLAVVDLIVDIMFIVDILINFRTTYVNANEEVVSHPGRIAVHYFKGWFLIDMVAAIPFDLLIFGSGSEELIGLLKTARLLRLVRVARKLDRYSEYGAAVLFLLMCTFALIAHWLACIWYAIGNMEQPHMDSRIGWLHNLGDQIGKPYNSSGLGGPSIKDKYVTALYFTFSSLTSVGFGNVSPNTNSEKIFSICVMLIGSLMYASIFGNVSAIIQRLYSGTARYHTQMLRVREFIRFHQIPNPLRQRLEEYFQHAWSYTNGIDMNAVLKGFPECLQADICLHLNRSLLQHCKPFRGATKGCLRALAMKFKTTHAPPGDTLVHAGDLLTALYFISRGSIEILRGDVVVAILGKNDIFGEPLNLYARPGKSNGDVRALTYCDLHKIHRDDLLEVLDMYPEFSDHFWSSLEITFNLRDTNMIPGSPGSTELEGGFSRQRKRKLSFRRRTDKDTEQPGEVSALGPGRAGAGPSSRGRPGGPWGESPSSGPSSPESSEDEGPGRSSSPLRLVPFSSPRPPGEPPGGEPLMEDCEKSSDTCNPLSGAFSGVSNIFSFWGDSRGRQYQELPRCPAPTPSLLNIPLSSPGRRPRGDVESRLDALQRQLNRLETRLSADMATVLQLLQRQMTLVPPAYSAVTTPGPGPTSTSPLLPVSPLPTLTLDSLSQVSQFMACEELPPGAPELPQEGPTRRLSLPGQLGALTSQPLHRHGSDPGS
Protocol: The experiment starts upon reaching a resistance of 2-3.5 MOhm. A 5 µL cell suspension is added after generating a suction pulse to capture a cell, increasing resistance to 5 MOhm, and triggering the sealing step. […] A hERG protocol measures ion current every 10 s with voltage steps: holding at −80 mV, depolarizing to +40 mV, and repolarizing to −40 mV. Stable current is achieved in ~2 min. […]

CYP2C9 = CYP2C9 (Homo sapiens, UniProt P11712); assay: CYP inhibition assay, recombinant isoform, fluorescence; assay type: biochemical
CYP2C9, sequence (P11712 whole entry, canonical isoform): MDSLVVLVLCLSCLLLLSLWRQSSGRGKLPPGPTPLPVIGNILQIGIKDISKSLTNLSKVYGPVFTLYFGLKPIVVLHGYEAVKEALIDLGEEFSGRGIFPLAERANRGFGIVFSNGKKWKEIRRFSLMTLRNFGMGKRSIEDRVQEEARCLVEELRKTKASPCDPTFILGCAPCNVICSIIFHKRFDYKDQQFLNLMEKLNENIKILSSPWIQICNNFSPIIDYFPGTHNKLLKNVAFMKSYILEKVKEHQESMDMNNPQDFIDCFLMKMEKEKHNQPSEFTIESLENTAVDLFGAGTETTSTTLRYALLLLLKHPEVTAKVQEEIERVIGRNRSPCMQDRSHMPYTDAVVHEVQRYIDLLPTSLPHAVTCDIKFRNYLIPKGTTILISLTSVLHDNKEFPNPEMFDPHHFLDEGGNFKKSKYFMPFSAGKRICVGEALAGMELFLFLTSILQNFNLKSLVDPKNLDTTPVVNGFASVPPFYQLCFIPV
Protocol: The CYP inhibition assay was performed for test/control inhibitor items in duplicates using a 96-well fluorescence plate. An example of the preparation of CYP inhibition is given below in Table 8.
The plate with CYP master premix with test/control was incubated to allow the test/control samples to interact with CYP enzyme for 10 ± 1 min at 25°C under shaking conditions (400 rpm) using Thermomixer. The assay was initiated by adding 10 µL of a substrate and NADP^+ mixture to all wells, including a vehicle control and an assay blank. The plate was then incubated at 25°C for 25 min with shaking at 400 rpm using a thermomixer. After incubation, the reaction was quenched by adding 50 µL of stop reagent (0.5 M Tris base) to each well. Fluorescence was measured using a microplate reader at excitation/emission wavelengths of 415/460 nm, respectively ([37]).

[1] = Protocol: Acute toxicity was performed on Balb/c female mice, 8 weeks old. This study was adopted and modified from a study described previously ([39]). Initial screening was done with 100 mg/kg, 200 mg/kg, 400 mg/kg, and 600 mg/kg doses of tridecaptin M and vehicle control (100% DMSO). […] Eight mice were taken, four in each group ([…]), one group was administered vehicle control (DMSO), and the other group was administered 600 mg/kg of tridecaptin M. After 3 days, blood was collected to obtain serum for biochemical tests, and mice were euthanized to remove organs (preserved in 10% formalin) for histopathological analysis.
[2] = Intravenous acute toxicity in mice; assay type: in vivo, Balb/c mice
Protocol: In total, 8–10 week old female Balb/c mice (n = 3) were administered tridecaptin M starting at 15 mg/kg, 25 mg/kg, 50 mg/kg, and 100 mg/kg. […] In this study, we administered 18 mg/kg of colistin to mice intravenously. […] Later, in the second set, intermediate concentrations of 20 mg/kg, 25 mg/kg, 30 mg/kg, 35 mg/kg, and 40 mg/kg doses were also administered to n = 4 mice. In these groups, blood was collected at 24 h post administration or immediately after visible movement stopped (40 mg/kg group), serum was separated and pooled together for each group n = 4, and biochemical serum tests were conducted.

in vitro [3] = conditions: rat, plasma, % Binding to Plasma Protein
Protocol: Plasma protein binding was assessed using the rapid equilibrium dialysis (RED) method, utilizing RED insert devices with a dialysis membrane featuring an 8,000 Dalton molecular weight cutoff for proteins. The test/control items in human, rat, and mouse plasma were prepared at a test concentration of 10 µM using 10 mM DMSO stocks, and the samples were added to the plasma chamber of the RED insert. The device was sealed with tape and incubated in a thermomixer at 37°C with shaking at 300 rpm for 4 h. Following incubation, a 50 µL aliquot of plasma and buffer was collected from each insert and diluted with an equal volume of the opposite matrix to mitigate matrix effects. The samples were quantified using LC-MS/MS analysis and were tested in duplicates.

in vitro [4] = conditions: mouse, microsomes
Protocol: For without cofactors, 20 µL of PBS was added instead of pre-incubated cofactors. […] At each specified time, a 100 µL sample was taken, processed through a sample extraction procedure, and submitted for LC-MS/MS analysis ([35]). Half-life (t1/2) of test/control items was determined using the following equation
where, elimination rate constant (k) = −(slope of linear regression curve).

[5] = concentrations well above its MIC; cited from earlier work
[6] = 40 /kg i.v., at death within 2 h

Compound: CC[C@H](C)CCCCC(=O)NCC(=O)N[C@H](CCN)C(=O)NCC(=O)N[C@H](CO)C(=O)N[C@H](Cc1c[nH]c2ccccc12)C(=O)N[C@@H](CO)C(=O)N[C@@H](CCN)C(=O)N[C@H](CCN)C(=O)N[C@H](C(=O)N[C@@H](CCC(=O)O)C(=O)N[C@H](C(=O)N[C@@H](C(=O)N[C@@H](CO)C(=O)O)[C@@H](C)CC)[C@@H](C)CC)[C@@H](C)CC [Tridecaptin M, tridecaptin M] (X1-G[dDab]G[dS][dW]S[Dab][dDab]IEI[d(aIle)]S-OH)
- Mean current (hERG channel; 0.1 µM): 4.41E-10 A
- Mean current (hERG channel; 0.3 µM): 4.66E-10 A
- Mean current (hERG channel; 1 µM): 4.64E-10 A
- Mean current (hERG channel; 3 µM): 4.58E-10 A
- Mean current (hERG channel; 10 µM): 4.34E-10 A
- Mean current (hERG channel; 30 µM): 4.68E-10 A
- inhibition of the hERG channel (hERG channel; concentrations up to 30 µM (44.6 µg/mL)): no significant inhibition
- inhibition at 0.1 µM (hERG channel; human, HEK293 cells expressing hERG, pH 7.4, 0.1 µM): -0.37%
- inhibition at 0.3 µM (hERG channel; human, HEK293 cells expressing hERG, pH 7.4, 0.3 µM): -5.86%
- inhibition at 1 µM (hERG channel; human, HEK293 cells expressing hERG, pH 7.4, 1 µM): -5.54%
- inhibition at 3 µM (hERG channel; human, HEK293 cells expressing hERG, pH 7.4, 3 µM): -4.07%
- inhibition at 10 µM (hERG channel; human, HEK293 cells expressing hERG, pH 7.4, 10 µM): 1.37%
- inhibition at 30 µM (hERG channel; human, HEK293 cells expressing hERG, pH 7.4, 30 µM): -6.44%
- IC50 (CYP2C9): > 30 µM
- inhibition at 25 min, 0.01 µM (CYP2C9; human): < 0%
- inhibition at 25 min, 0.03 µM (CYP2C9; human): 0.93%
- inhibition at 25 min, 0.1 µM (CYP2C9; human): < 0%
- inhibition at 25 min, 0.3 µM (CYP2C9; human): < 0%
- inhibition at 25 min, 1 µM (CYP2C9; human): 0.05%
- inhibition at 25 min, 3 µM (CYP2C9; human): < 0%
- inhibition at 25 min, 10 µM (CYP2C9; human): 0.82%
- inhibition at 25 min, 30 µM (CYP2C9; human): 25.6%
- SGPT (serum) ([1]; 600 mg/kg s.c., female mouse TF-2, day 3): 112 Units/L
- mortality ([1]; single s.c. dose 100-600 mg/kg): No mortality was observed
- histopathology of heart, kidney, liver, brain, spleen ([1]; single s.c. dose 100-600 mg/kg, vs vehicle control): No signs of toxicity or pathological changes
- dose up to which safety is confirmed ([1]; subcutaneous administration): up to 600 mg/kg
- Amylase (pooled serum) ([2]; 20 mg/kg i.v., 24 h): 3800 U/L
- BUN (pooled serum) ([2]; 20 mg/kg i.v., 24 h): 96 mg%
- CPK (pooled serum) ([2]; 20 mg/kg i.v., 24 h): 448 U/L
- CPK_MB (pooled serum) ([2]; 20 mg/kg i.v., 24 h): 420 U/L
- Glucose (pooled serum) ([2]; 20 mg/kg i.v., 24 h): 344 mg/dL
- LDH (pooled serum) ([2]; 20 mg/kg i.v., 24 h): 2120 U/L
- Lipase (pooled serum) ([2]; 20 mg/kg i.v., 24 h): 1016 U/L
- SGOT (pooled serum) ([2]; 20 mg/kg i.v., 24 h): 244 Units/L
- SGPT (pooled serum) ([2]; 20 mg/kg i.v., 24 h): 68 Units/L
- outcome of i.v. administration ([2]; 25 mg/kg or less i.v.): no visible signs of toxicity or mortality
- clinical signs ([2]; 30 mg/kg i.v.): abnormal motor behavior, including dragging of limbs
- survival time post-administration ([2]; 30 mg/kg i.v.): 6 to 10 h
- time to mortality ([2]; 40 mg/kg i.v.): ≤ 2 h
- outcome of i.v. administration ([2]; 50 mg/kg i.v.): resulted in mortality
- outcome of i.v. administration ([2]; 100 mg/kg i.v.): immediately lethal
- Amylase (pooled serum) ([2]; 25 /kg i.v., 24 h): 5144 U/L
- BUN (pooled serum) ([2]; 25 /kg i.v., 24 h): 112 mg%
- CPK (pooled serum) ([2]; 25 /kg i.v., 24 h): 712 U/L
- CPK_MB (pooled serum) ([2]; 25 /kg i.v., 24 h): 952 U/L
- Glucose (pooled serum) ([2]; 25 /kg i.v., 24 h): 248 mg/dL
- LDH (pooled serum) ([2]; 25 /kg i.v., 24 h): 3896 U/L
- Lipase (pooled serum) ([2]; 25 /kg i.v., 24 h): 972 U/L
- SGOT (pooled serum) ([2]; 25 /kg i.v., 24 h): 872^b Units/L
- SGPT (pooled serum) ([2]; 25 /kg i.v., 24 h): 208 Units/L
- Amylase (pooled serum) [2, 6]: 1560 U/L
- BUN (pooled serum) [2, 6]: 24 mg%
- CPK (pooled serum) [2, 6]: 24,472 U/L
- CPK_MB (pooled serum) [2, 6]: 1408 U/L
- Glucose (pooled serum) [2, 6]: 152 mg/dL
- LDH (pooled serum) [2, 6]: 3280 U/L
- Lipase (pooled serum) [2, 6]: 368 U/L
- SGOT (pooled serum) [2, 6]: 784 Units/L
- SGPT (pooled serum) [2, 6]: 88 Units/L
- histopathology of liver, kidney, heart and brain vs control ([2]; i.v. administration): no significant morphological alterations
- dose at which acute toxicity is seen ([2]; intravenous administration): ≥ 30 mg/kg
- fraction unbound at 4 h, 10 µM (in vitro [3]): 0.465
- half-life (in vitro [4]; pH 7.4): > 2 h
- remaining at 0.25 h (in vitro [4]; pH 7.4): 82.4%
- remaining at 0.5 h (in vitro [4]; pH 7.4): 83.8%
- remaining at 1 h (in vitro [4]; pH 7.4): 88.1%
- remaining at 2 h (in vitro [4]; pH 7.4): 74.7%
- microsomal CLint (in vitro [4]; pH 7.4, CL, mouse liver microsomes): < 11 µL/min/mg
- hemolysis [5]: non-hemolytic
